# Earlier results as cited in PubChem BioAssay AID1259409 (Chemical Carcinogenesis Research Information System (CCRIS), 2018).
# Test system: rodent chemically induced tumor inhibition, incidence and multiplicity
# Experiment: CCRIS tumor inhibitor studies
smiles,measurement,setting,value
N[C@@H]1C[C@H]1c1ccccc1,"tumour outcome (control, treated, inhibition, significance)","Carcinogen: N-METHYL-N-NITROSOUREA, 684-93-5, Dose [Inhibitor]: 10 MG/KG OF HIGH (20%) FAT DIET BEGINNING 1 WK POST CARCINOGEN DOSE AND CONTINUING FOR DURATION OF STUDY (STUDY DURATION, Route [Inhibitor]: ORAL, Species: RAT, Strain/Sex: SPRAGUE-DAWLEY/FEMALE, Target Tissue: Type of Lesion: MAMMARY GLAND: TUMOR, Dose [Carcinogen]: 40 MG/KG ONCE, Promoter: NONE USED","78%, 88%, -13%, not calculated"
same,"tumour outcome (control, treated, inhibition, significance)","Carcinogen: N-METHYL-N-NITROSOUREA, 684-93-5, Dose [Inhibitor]: 10 MG/KG OF LOW (3%) FAT DIET BEGINNING 1 WK POST CARCINOGEN DOSE AND CONTINUING FOR DURATION OF STUDY (STUDY DURATION:, Route [Inhibitor]: ORAL, Species: RAT, Strain/Sex: SPRAGUE-DAWLEY/FEMALE, Target Tissue: Type of Lesion: MAMMARY GLAND: TUMOR, Dose [Carcinogen]: 40 MG/KG ONCE, Promoter: NONE USED","78%, 83%, -6%, not calculated"
CCCCC/C=C\C/C=C\CCCCCCCC(=O)O,"tumour outcome (control, treated, inhibition, significance)","Carcinogen: BENZO[A]PYRENE, 50-32-8, Dose [Inhibitor]: 0, 0.1 ML IN 0.1 ML OLIVE OIL 4 AND 2 D PRIOR TO CARCINOGEN DOSE (CYCLE REPEATED 4 X) (STUDY DURATION: 23 WK), Route [Inhibitor]: GAVAGE, Species: MOUSE, Strain/Sex: ICR/FEMALE, Target Tissue: Type of Lesion: STOMACH: PAPILLOMA, Dose [Carcinogen]: 2 MG IN 0.2 ML OLIVE OIL 1/WK FOR 4 WK","100%, 90%, 10%, not calculated"
C=C(C)[C@H]1Cc2c(ccc3c2O[C@@H]2COc4cc(OC)c(OC)cc4[C@@H]2C3=O)O1,"tumour outcome (control, treated, inhibition, significance)","Carcinogen: AZOXYMETHANE (25843-45-2), Dose [Inhibitor]: 0, 500 PPM IN DIET FOR 4 WK, BEGINNING 1 WK BEFORE THE FIRST CARCINOGEN DOSE (STUDY DURATION: 38 WK), Route [Inhibitor]: ORAL, Species: RAT, Strain/Sex: F344/MALE, Target Tissue: Type of Lesion: LARGE INTESTINE: ADENOCARCINOMA, Dose [Carcinogen]: 15 MG/KG BW 1 INJECTION/WK FOR 3 WK, Promoter: NONE USED","9/15 (60%), 6/19 (32%), 47%, not significant"
same,"tumour outcome (control, treated, inhibition, significance)","Carcinogen: AZOXYMETHANE (25843-45-2), Dose [Inhibitor]: 0, 500 PPM IN DIET FOR 4 WK, BEGINNING 1 WK BEFORE THE FIRST CARCINOGEN DOSE (STUDY DURATION: 38 WK), Route [Inhibitor]: ORAL, Species: RAT, Strain/Sex: F344/MALE, Target Tissue: Type of Lesion: LARGE INTESTINE: ADENOMA, Dose [Carcinogen]: 15 MG/KG BW 1 INJECTION/WK FOR 3 WK, Promoter: NONE USED","4/15 (27%), 2/19 (11%), 59%, not significant"
same,"tumour outcome (control, treated, inhibition, significance)","Carcinogen: AZOXYMETHANE (25843-45-2), Dose [Inhibitor]: 0, 500 PPM IN DIET FOR 4 WK, BEGINNING 1 WK BEFORE THE FIRST CARCINOGEN DOSE (STUDY DURATION: 38 WK), Route [Inhibitor]: ORAL, Species: RAT, Strain/Sex: F344/MALE, Target Tissue: Type of Lesion: SMALL INTESTINE: ADENOCARCINOMA, Dose [Carcinogen]: 15 MG/KG BW 1 INJECTION/WK FOR 3 WK, Promoter: NONE USED","4/15 (27%), 1/19 (5%), 81%, not significant"
same,"tumour outcome (control, treated, inhibition, significance)","Carcinogen: AZOXYMETHANE (25843-45-2), Dose [Inhibitor]: 0, 500 PPM IN DIET FOR 4 WK, BEGINNING 1 WK BEFORE THE FIRST CARCINOGEN DOSE (STUDY DURATION: 38 WK), Route [Inhibitor]: ORAL, Species: RAT, Strain/Sex: F344/MALE, Target Tissue: Type of Lesion: SMALL INTESTINE: ADENOMA, Dose [Carcinogen]: 15 MG/KG BW 1 INJECTION/WK FOR 3 WK, Promoter: NONE USED","1/15 (7%), 0/19 (0%), 100%, not significant"
same,"tumour outcome (control, treated, inhibition, significance)","Carcinogen: AZOXYMETHANE (25843-45-2), Dose [Inhibitor]: 0, 500 PPM IN DIET FOR 34 WK, BEGINNING 1 WK AFTER THE LAST CARCINOGEN DOSE (STUDY DURATION: 38 WK), Route [Inhibitor]: ORAL, Species: RAT, Strain/Sex: F344/MALE, Target Tissue: Type of Lesion: LARGE INTESTINE: ADENOCARCINOMA, Dose [Carcinogen]: 15 MG/KG BW 1 INJECTION/WK FOR 3 WK, Promoter: NONE USED","9/15 (60%), 3/16 (19%), 68%, p= 0.0226"
same,"tumour outcome (control, treated, inhibition, significance)","Carcinogen: AZOXYMETHANE (25843-45-2), Dose [Inhibitor]: 0, 500 PPM IN DIET FOR 34 WK, BEGINNING 1 WK AFTER THE LAST CARCINOGEN DOSE (STUDY DURATION: 38 WK), Route [Inhibitor]: ORAL, Species: RAT, Strain/Sex: F344/MALE, Target Tissue: Type of Lesion: LARGE INTESTINE: ADENOMA, Dose [Carcinogen]: 15 MG/KG BW 1 INJECTION/WK FOR 3 WK, Promoter: NONE USED","4/15 (27%), 1/16 (6%), 78%, not significant"
same,"tumour outcome (control, treated, inhibition, significance)","Carcinogen: AZOXYMETHANE (25843-45-2), Dose [Inhibitor]: 0, 500 PPM IN DIET FOR 34 WK, BEGINNING 1 WK AFTER THE LAST CARCINOGEN DOSE (STUDY DURATION: 38 WK), Route [Inhibitor]: ORAL, Species: RAT, Strain/Sex: F344/MALE, Target Tissue: Type of Lesion: SMALL INTESTINE: ADENOCARCINOMA, Dose [Carcinogen]: 15 MG/KG BW 1 INJECTION/WK FOR 3 WK, Promoter: NONE USED","4/15 (27%), 1/16 (6%), 78%, not significant"
same,"tumour outcome (control, treated, inhibition, significance)","Carcinogen: AZOXYMETHANE (25843-45-2), Dose [Inhibitor]: 0, 500 PPM IN DIET FOR 34 WK, BEGINNING 1 WK AFTER THE LAST CARCINOGEN DOSE (STUDY DURATION: 38 WK), Route [Inhibitor]: ORAL, Species: RAT, Strain/Sex: F344/MALE, Target Tissue: Type of Lesion: SMALL INTESTINE: ADENOMA, Dose [Carcinogen]: 15 MG/KG BW 1 INJECTION/WK FOR 3 WK, Promoter: NONE USED","1/15 (7%), 0/16 (0%), 100%, not significant"
same,outcome,"Carcinogen: DIETHYLNITROSAMINE, Dose [Inhibitor]: 0, 0.005, 0.5, 500 PPM FOR 11 OR 43 WK BEGINNING 1 WK AFTER CARCINOGEN (STUDY DURATION: 45 WK), Dose [Inhibitor]: 0, 0.005, 0.5, 500 PPM FOR 11 OR 43 WK BEGINNING 1 WK AFTER CARCINOGEN (STUDY DURATION: 45 WK), Route [Inhibitor]: DIET, Species: RAT, Strain/Sex: F344/MALE, Target Tissue: Type of Lesion: LIVER: HEPATOCELLULAR CARCINOMA, HEPATOCELLULAR ADENOMA, Dose [Carcinogen]: 100 MG/KG BW TWICE AT 1 WK INTERVALS (STUDY DURATION: 45 WK)",60; 35; 65; 100: 55; 65; 50; 100
CC(C)(C)c1cc(C(C)(C)C)c(O)c(C(C)(C)C)c1,"tumour outcome (control, treated, inhibition, significance)","Carcinogen: BENZO[A]PYRENE, 50-32-8, Dose [Inhibitor]: 0.03 MMOL/G OF DIET DAILY STARTING 7 D BEFORE AND CONTINUING THROUGH 3 D AFTER CARCINOGEN TREATMENT FOLLOWED BY OBSERVAT, Route [Inhibitor]: ORAL, Species: MOUSE, Strain/Sex: ICR/FEMALE, Target Tissue: Type of Lesion: FORESTOMACH: NEOPLASM, Dose [Carcinogen]: 1 MG IN 0.2 ML CORN OIL 2/WK FOR 4 WK, Promoter: NONE USED","100%, 93%, 7%, not significant"
